In US10676485B2, “Macrocyclic MCL-1 inhibitors and methods of use” (AbbVie Inc., priority 2017, dated 2020):
Read-outs that look alike come from different tables or passages of the source.

Columns and labels:
GST-MCL-1 = GST-MCL-1 (Homo sapiens (Human), UniProt Q07820); experiment: TR-FRET MCL-1 binding assay (competition with probe F-Bak)
Description: For the assay, an acoustic dispenser was used to prepare dilution series from 10 mM test compounds in 100% DMSO and directly transfer 160 nL into low volume 384-well assay plates. 8 μL of a protein/probe/antibody mix was then added to each well resulting in final concentrations listed below: Test compound: 11 three-fold dilutions beginning at 25 μM
The samples were then mixed on a shaker for 1 minute and incubated for an additional 2 hours at room temperature. For each assay plate, a probe/antibody and protein/antibody/probe mixture were included as a negative and a positive control, respectively. Fluorescence was measured on the Envision (Perkin Elmer) using a 340/35 nm excitation filter and 520/525 (F-Bak) and 495/510 nm (Tb-labeled anti-his antibody) emission filters. […] The TR-FRET assay can be performed in the presence of varying concentrations of human serum (HS) or fetal bovine serum (FBS). Compounds were tested both without HS and in the presence of 10% HS.

[1] = system: AMO-1 human multiple myeloma tumor cell line; experiment: AMO-1 cell viability assay (CellTiter-Glo); format: cell-based; settings: AMO1, read-out: AMO-1 Viability IC50 (μM), 10% FBS, 24 hours of compound treatment
[2] = system: NCI-H929 human multiple myeloma tumor cell line; experiment: NCI-H929 cell viability assay (CellTiter-Glo); format: cell-based; settings: NCI-H929, read-out: H929 Viability IC50 (μM), 10% FBS, 24 hours of compound treatment
[3] = read-out: MCL-1 Binding Ki (nM, 10% HS), in the presence of 10% HS
[4] = without HS, read-out: MCL-1 Binding Ki

Sequence of GST-MCL-1 (Q07820 whole entry): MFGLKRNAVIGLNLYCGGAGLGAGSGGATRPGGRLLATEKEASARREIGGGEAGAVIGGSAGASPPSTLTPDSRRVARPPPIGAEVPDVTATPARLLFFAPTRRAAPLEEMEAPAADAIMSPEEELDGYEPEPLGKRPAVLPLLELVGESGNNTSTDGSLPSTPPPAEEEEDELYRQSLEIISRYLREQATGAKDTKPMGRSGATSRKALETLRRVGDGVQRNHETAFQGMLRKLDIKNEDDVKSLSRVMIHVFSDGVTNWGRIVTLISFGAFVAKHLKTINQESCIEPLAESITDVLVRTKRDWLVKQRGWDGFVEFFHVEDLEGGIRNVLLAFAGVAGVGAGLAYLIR

With Cc1c(Cl)c2c(Cl)c(C)c1-c1c(-c3ccc(F)cc3)sc3ncnc(c13)O[C@@H](C(=O)O)Cc1cc(ccc1OCc1ccnc([C@H]3CC[C@H](COC[C@H]4COCCO4)CC3)n1)OC[C@@H](CN1CCN(C)CC1)O2 [Example 51, (7R,16R)-19,23-dichloro-10-({2-[(1R,4r)-4-({[(2S)-1,4-dioxan-2-yl]methoxy}methyl)cyclohexyl]pyrimidin-4-yl}methoxy)-1-(4-fluorophenyl)-20,22-dimethyl-16-[(4-methylpiperazin-1-yl)methyl]-7,8,15,16-tetrahydro-18,21-etheno-13,9-(metheno)-6,14,17-trioxa-2-thia-3,5-diazacyclononadeca[1,2,3-cd]indene-7-carboxylic acid] the Ki (GST-MCL-1; [3]) was 0.131 nM, the Ki (GST-MCL-1; [4]) was < 0.01 nM and the IC50 [1] was 0.267 nM. It also gave an IC50 [2] of 0.000299 µM.

Cc1c(Cl)c2c(Cl)c(C)c1-c1c(-c3ccc(F)cc3)sc3ncnc(c13)O[C@@H](C(=O)O)Cc1cc(ccc1OCc1ccnc(-c3ccc(OC[C@H]4COCCO4)cc3)n1)OC[C@@H](CN1CCN(C)CC1)O2 [Example 2, (7R,16R)-19,23-dichloro-10-{[2-(4-{[(2R)-1,4-dioxan-2-yl]methoxy}phenyl)pyrimidin-4-yl]methoxy}-1-(4-fluorophenyl)-20,22-dimethyl-16-[(4-methylpiperazin-1-yl)methyl]-7,8,15,16-tetrahydro-18,21-etheno-13,9-(metheno)-6,14,17-trioxa-2-thia-3,5-diazacyclononadeca[1,2,3-cd]indene-7-carboxylic acid] gave a Ki (GST-MCL-1; [3]) of 1.04 nM, a Ki (GST-MCL-1; [4]) of 0.052 nM and an IC50 [1] of 0.19 nM. It also gave an IC50 [2] of 0.0033 µM.

Cc1c(Cl)c2c(Cl)c(C)c1-c1c(C3=CCCC3)sc3ncnc(c13)O[C@@H](C(=O)O)Cc1cc(ccc1OCc1ccnc([C@H]3CC[C@H](OCC4COCCO4)CC3)n1)OC[C@@H](CN1CCN(C)CC1)O2 (stereo partly drawn) [Example 32, (7R,16R)-19,23-dichloro-1-(cyclopent-1-en-1-yl)-10-[(2-{(1r,4r)-4-[(1,4-dioxan-2-yl)methoxy]cyclohexyl}pyrimidin-4-yl)methoxy]-20,22-dimethyl-16-[(4-methylpiperazin-1-yl)methyl]-7,8,15,16-tetrahydro-18,21-etheno-13,9-(metheno)-6,14,17-trioxa-2-thia-3,5-diazacyclononadeca[1,2,3-cd]indene-7-carboxylic acid] gave a Ki (GST-MCL-1; [3]) of 0.27 nM, a Ki (GST-MCL-1; [4]) of 0.022 nM and an IC50 [1] of 0.17 nM. For the same molecule, the IC50 [2] was 0.000296 µM.

With Cc1c(Cl)c2c(Cl)c(C)c1-c1c(-c3ccc(F)cc3)sc3ncnc(c13)O[C@@H](C(=O)O)Cc1cc(ccc1OCc1ccnc(N3CC(COC[C@H]4COCCO4)C3)n1)OC[C@@H](CN1CCN(C)CC1)O2 [Example 12, (7R,16R)-19,23-dichloro-10-({2-[3-({[(2S)-1,4-dioxan-2-yl]methoxy}methyl)azetidin-1-yl]pyrimidin-4-yl}methoxy)-1-(4-fluorophenyl)-20,22-dimethyl-16-[(4-methylpiperazin-1-yl)methyl]-7,8,15,16-tetrahydro-18,21-etheno-9,13-(metheno)-6,14,17-trioxa-2-thia-3,5-diazacyclononadeca[1,2,3-cd]indene-7-carboxylic acid] the Ki (GST-MCL-1; [3]) was 0.61 nM, the Ki (GST-MCL-1; [4]) was 0.076 nM and the IC50 [1] was 1.04 nM. It also gave an IC50 [2] of 0.00208 µM.

Cc1c(Cl)c2c(Cl)c(C)c1-c1c(-c3ccc(F)cc3)sc3ncnc(c13)O[C@@H](C(=O)O)Cc1cc(ccc1OCc1ccnc([C@H]3CC[C@@](F)(COC[C@H]4COCCO4)CC3)n1)OC[C@@H](CN1CCN(C)CC1)O2 [Example 47, (7R,16R)-19,23-dichloro-10-({2-[(1R,4r)-4-({[(2R)-1,4-dioxan-2-yl]methoxy}methyl)-4-fluorocyclohexyl]pyrimidin-4-yl}methoxy)-1-(4-fluorophenyl)-20,22-dimethyl-16-[(4-methylpiperazin-1-yl)methyl]-7,8,15,16-tetrahydro-18,21-etheno-13,9-(metheno)-6,14,17-trioxa-2-thia-3,5-diazacyclononadeca[1,2,3-cd]indene-7-carboxylic acid] gave a Ki (GST-MCL-1; [3]) of 0.521 nM, a Ki (GST-MCL-1; [4]) of 0.0133 nM and an IC50 [1] of 0.463 nM. For the same molecule, the IC50 [2] was 0.000344 µM.

Molecule Cc1c(Cl)c2c(Cl)c(C)c1-c1c(-c3ccc(F)cc3)sc3ncnc(c13)O[C@@H](C(=O)O)Cc1cc(ccc1OCc1cc(-c3ccc(OC[C@H]4COCCO4)cc3)ncn1)OC[C@@H](CN1CCN(C)CC1)O2 [Example 31, (7R,16R)-19,23-dichloro-10-{[6-(4-{[(2R)-1,4-dioxan-2-yl]methoxy}phenyl)pyrimidin-4-yl]methoxy}-1-(4-fluorophenyl)-20,22-dimethyl-16-[(4-methylpiperazin-1-yl)methyl]-7,8,15,16-tetrahydro-18,21-etheno-13,9-(metheno)-6,14,17-trioxa-2-thia-3,5-diazacyclononadeca[1,2,3-cd]indene-7-carboxylic acid] has a Ki (GST-MCL-1; [3]) of 5.27 nM, a Ki (GST-MCL-1; [4]) of 0.373 nM and an IC50 [1] of 4.19 nM. It also gave an IC50 [2] of 0.011 µM.

In the case of Cc1c(Cl)c2c(Cl)c(C)c1-c1c(-c3ccc(F)cc3)sc3ncnc(c13)O[C@@H](C(=O)O)Cc1cc(ccc1OCc1ccnc(C3=CC[C@](F)(COC[C@H]4COCCO4)CC3)n1)OC[C@@H](CN1CCN(C)CC1)O2 [Example 40, (7R,16R)-19,23-dichloro-10-({2-[(4S)-4-({[(2R)-1,4-dioxan-2-yl]methoxy}methyl)-4-fluorocyclohex-1-en-1-yl]pyrimidin-4-yl}methoxy)-1-(4-fluorophenyl)-20,22-dimethyl-16-[(4-methylpiperazin-1-yl)methyl]-7,8,15,16-tetrahydro-18,21-etheno-13,9-(metheno)-6,14,17-trioxa-2-thia-3,5-diazacyclononadeca[1,2,3-cd]indene-7-carboxylic acid], the Ki (GST-MCL-1; [3]) is reported as 0.63 nM, the Ki (GST-MCL-1; [4]) is reported as 0.014 nM and the IC50 [1] is reported as 0.352 nM. For the same molecule, the IC50 [2] was 0.000271 µM.

For Cc1c(Cl)c2c(Cl)c(C)c1-c1c(-c3ccc(F)cc3)sc3ncnc(c13)O[C@@H](C(=O)O)Cc1cc(ccc1OCc1ccnc([C@H]3CC[C@H](COC[C@@H]4COCCO4)CC3)n1)OC[C@@H](CN1CCN(C)CC1)O2 [Example 49, (7R,16R)-19,23-dichloro-10-({2-[(1S,4r)-4-({[(2R)-1,4-dioxan-2-yl]methoxy}methyl)cyclohexyl]pyrimidin-4-yl}methoxy)-1-(4-fluorophenyl)-20,22-dimethyl-16-[(4-methylpiperazin-1-yl)methyl]-7,8,15,16-tetrahydro-18,21-etheno-13,9-(metheno)-6,14,17-trioxa-2-thia-3,5-diazacyclononadeca[1,2,3-cd]indene-7-carboxylic acid], the Ki (GST-MCL-1; [3]) was 0.128 nM, the Ki (GST-MCL-1; [4]) was < 0.01 nM and the IC50 [1] was 0.172 nM. It also gave an IC50 [2] of 0.000314 µM.

Cc1c(Cl)c2c(Cl)c(C)c1-c1c(-c3ccc(F)cc3)sc3ncnc(c13)O[C@@H](C(=O)O)Cc1cc(ccc1OCc1ccnc([C@H]3CC[C@](F)(COC[C@@H]4COCCO4)CC3)n1)OC[C@@H](CN1CCN(C)CC1)O2 [Example 28, (7R,16R)-19,23-dichloro-10-({2-[(1R,4s)-4-({[(2S)-1,4-dioxan-2-yl]methoxy}methyl)-4-fluorocyclohexyl]pyrimidin-4-yl}methoxy)-1-(4-fluorophenyl)-20,22-dimethyl-16-[(4-methylpiperazin-1-yl)methyl]-7,8,15,16-tetrahydro-18,21-etheno-13,9-(metheno)-6,14,17-trioxa-2-thia-3,5-diazacyclononadeca[1,2,3-cd]indene-7-carboxylic acid] gave a Ki (GST-MCL-1; [3]) of 0.18 nM, a Ki (GST-MCL-1; [4]) of 0.017 nM and an IC50 [1] of 0.211 nM. It also gave an IC50 [2] of 0.000337 µM.

In the case of Cc1c(Cl)c2c(Cl)c(C)c1-c1c(-c3ccc(F)cc3)sc3ncnc(c13)O[C@@H](C(=O)O)Cc1cc(ccc1OCc1ccnc(-c3cccc(OC[C@H]4COCCO4)c3)n1)OC[C@@H](CN1CCN(C)CC1)O2 [Example 21, (7R,16R)-19,23-dichloro-10-{[2-(3-{[(2R)-1,4-dioxan-2-yl]methoxy}phenyl)pyrimidin-4-yl]methoxy}-1-(4-fluorophenyl)-20,22-dimethyl-16-[(4-methylpiperazin-1-yl)methyl]-7,8,15,16-tetrahydro-18,21-etheno-13,9-(metheno)-6,14,17-trioxa-2-thia-3,5-diazacyclononadeca[1,2,3-cd]indene-7-carboxylic acid], the Ki (GST-MCL-1; [3]) is reported as 1.01 nM, the Ki (GST-MCL-1; [4]) is reported as 0.011 nM and the IC50 [1] is reported as 0.0488 nM. The IC50 [2] was 0.000168 µM.

Molecule Cc1c(Cl)c2c(Cl)c(C)c1-c1c(-c3ccc(F)cc3)sc3ncnc(c13)O[C@@H](C(=O)O)Cc1cc(ccc1OCc1ccnc(C3(COC[C@H]4COCCO4)CCC3)n1)OC[C@@H](CN1CCN(C)CC1)O2 [Example 11, (7R,16R)-19,23-dichloro-10-({2-[1-({[(2S)-1,4-dioxan-2-yl]methoxy}methyl)cyclobutyl]pyrimidin-4-yl}methoxy)-1-(4-fluorophenyl)-20,22-dimethyl-16-[(4-methylpiperazin-1-yl)methyl]-7,8,15,16-tetrahydro-18,21-etheno-13,9-(metheno)-6,14,17-trioxa-2-thia-3,5-diazacyclononadeca[1,2,3-cd]indene-7-carboxylic acid] has an IC50 [1] of 0.188 nM and an IC50 [2] of 0.000545 µM.
